This passage reports chromatographic logP results from patent EP2540163A1, “Nematocide N-cyclopropyl-sulfonylamide derivatives” (Bayer CropScience AG, priority 2011, dated 2013).

The series is described as follows: logP by HPLC on reversed-phase column (C 18), EEC Directive 79/831 Annex V.A8, Method B (0.1% aqueous formic acid / acetonitrile, 40°C). Format: physicochemical. As to conditions: c18 reversed-phase hplc; LogP method B: HPLC reversed-phase C 18, 40°C, 0.1% aqueous formic acid / acetonitrile. The protocol:
Calibration was carried out using unbranched alkan-2-ones (having 3 to 16 carbon atoms) with known logP values (determination of the logP values by the retention times using linear interpolation between two successive alkanones).
With `CCOc1nn(C)cc1C(=O)N(C1CC1)S(=O)(=O)c1ccc(Oc2cccc(N(C)C)c2)cc1Cl` [compound 532], the chromatographic logP (commonly lipophilicity estimated from chromatographic retention) was 3.8. Turning to `O=C(c1cccnc1Cl)N(C1CC1)S(=O)(=O)c1ccc(Oc2ccccc2)cc1` [compound 646], the chromatographic logP worked out at 3.7. The compound `COc1nn(C)cc1C(=O)N(C1CC1)S(=O)(=O)c1ccc(Oc2cccc(Cl)c2)cc1Br` [compound 468] gave a chromatographic logP of 3.7. `CCOc1nn(C)cc1C(=O)N(C1CC1)S(=O)(=O)c1ccc(Oc2cccc(C(F)(F)F)c2)c(Cl)c1` [compound 549] displayed a chromatographic logP of 4.4.

With `Cn1nc(C(F)F)c(C(=O)N(C2CC2)S(=O)(=O)c2cccc(Cl)c2Cl)c1F` [compound 104], the chromatographic logP stood at 3.2.

`CCOc1nn(C)cc1C(=O)N(C1CC1)S(=O)(=O)c1ccc(Oc2ccc(Cl)cc2)c(Cl)c1` [compound 545] displayed a chromatographic logP of 4.3. As to `Cn1nc(C(F)(F)F)c(C(=O)N(C2CC2)S(=O)(=O)c2ccc(Cl)c(Cl)c2Cl)c1F` [compound 108], the chromatographic logP came out at 4.1. As for `Cc1oncc1C(=O)N(C1CC1)S(=O)(=O)c1cccc(Cl)c1Cl` [compound 603], the figure is 2.2; as for `CCOc1nn(C)cc1C(=O)N(C1CC1)S(=O)(=O)c1ccc(Oc2ccc(Br)c(Cl)c2)cc1Cl` [compound 544], 4.3. `CCOc1nn(C)cc1C(=O)N(C1CC1)S(=O)(=O)c1ccc(Oc2ccc(Cl)cc2Cl)cc1Cl` [compound 543]: the chromatographic logP turned out to be 4.3. The compound `Cn1nc(C(F)(F)F)c(C(=O)N(C2CC2)S(=O)(=O)c2cc(Cl)c(Cl)cc2Cl)c1F` [compound 361] displayed a chromatographic logP of 4. As for `COc1nn(C)cc1C(=O)N(C1CC1)S(=O)(=O)c1c(Cl)cc(C(F)(F)F)cc1Cl` [compound 396], the chromatographic logP turned out to be 3. On to `CCOc1nn(C)cc1C(=O)N(C1CC1)S(=O)(=O)c1ccc(Oc2ccc(OC)cc2)c(Cl)c1` [compound 531], for which the chromatographic logP came to 3.8. `CCCOc1nn(C)cc1C(=O)N(C1CC1)S(=O)(=O)c1ccc(Oc2cc(Cl)cc(Cl)c2)cc1Br` [compound 305]: the chromatographic logP amounted to 5.1. As for `CCc1nn(C)c(F)c1C(=O)N(C1CC1)S(=O)(=O)c1cnc(Cl)c(Br)c1` [compound 448], the figure is 3.5; as for `CCCCCc1ccc(Oc2ccc(S(=O)(=O)N(C(=O)c3cn(C)nc3OCC)C3CC3)c(Cl)c2)cc1` [compound 560], 5.6; as for `CCOc1nn(C)cc1C(=O)N(C1CC1)S(=O)(=O)c1ccc(Oc2ccc(C)cc2)c(Cl)c1` [compound 542], 4.3. The compound `COc1cscc1C(=O)N(C1CC1)S(=O)(=O)c1cccc(Cl)c1Cl` [compound 25] registered a chromatographic logP of 3.3.

With `O=C(c1ccsc1I)N(C1CC1)S(=O)(=O)c1cccc(Cl)c1Cl` [compound 19], the chromatographic logP came out at 3.8. `COc1nn(C)c(Cl)c1C(=O)N(C1CC1)S(=O)(=O)c1ccc(Cl)c(Cl)c1Cl` [compound 282]: the chromatographic logP stood at 3.8. Compound `COc1nn(C)cc1C(=O)N(C1CC1)S(=O)(=O)c1cnc(Cl)c(Br)c1` [compound 449] yielded a chromatographic logP of 2. As for `CCc1nn(C)c(F)c1C(=O)N(C1CC1)S(=O)(=O)c1c(Cl)sc(Cl)c1Br` [compound 437], the chromatographic logP is 3.8. The compound `COc1nn(C)cc1C(=O)N(C1CC1)S(=O)(=O)c1c(Cl)cc(Cl)cc1Cl` [compound 461] returned a chromatographic logP of 2.7. The compound `Cc1cc(C(=O)N(C2CC2)S(=O)(=O)c2ccc(Cl)c(Cl)c2Cl)nn1C` [compound 75] displayed a chromatographic logP of 3.3. In the case of `COc1nn(C)c(Cl)c1C(=O)N(C1CC1)S(=O)(=O)c1cccc(Cl)c1Cl` [compound 278], the chromatographic logP came to 3.2. `COc1nn(C)cc1C(=O)N(C1CC1)S(=O)(=O)c1csc(Cl)c1Cl` [compound 440] registered a chromatographic logP of 3.1. To `CCc1nn(C)c(F)c1C(=O)N(C1CC1)S(=O)(=O)c1ccc(Br)cc1Cl` [compound 385] belongs 3.4.
